Reference: US7211576B2, “Diaminothiazoles” (Hoffmann-La Roche Inc., priority 2004, dated 2007)

How the values were obtained:
[1] = target: human cyclin D1-CDK4 (Homo sapiens, UniProt P11802); experiment: FlashPlate kinase assay, cyclin D1-CDK4; format: biochemical; conditions: Rb protein substrate, 1 μM ATP, 33P-ATP, 30 minutes room temperature; read-out: CDK4 IC50
[2] = system: HCT116, a colorectal carcinoma cell line; experiment: Tetrazolium dye (MTT) proliferation assay; format: cell-based; conditions: Homo sapiens, HCT-116; HCT116 cells, inhibition of cell proliferation
Summary of the method: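 Cells in McCoy's 5A with 10% FCS, seeded for log growth, dosed next day in duplicate (0.3% DMSO final) and incubated to time points set by growth curves at 37° C. MTT at 1 mg/ml for 2.5–3 h, formazan in ethanol, A570 minus 650 nm reference. IC50 by linear regression of log concentration versus % inhibition.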

[3] = target: human cyclin B-CDK1 (Homo sapiens, UniProt P06493); experiment: FlashPlate kinase assay, cyclin B-CDK1; format: biochemical; conditions: Rb protein substrate, 1 μM ATP, 33P-ATP, 30 minutes room temperature
[4] = target: human cyclin E-CDK2 (Homo sapiens, UniProt P24941); experiment: FlashPlate kinase assay, cyclin E-CDK2; format: biochemical; conditions: Rb protein substrate, 1 μM ATP, 33P-ATP, 30 minutes room temperature

Sequence of human cyclin D1-CDK4 (P11802 whole entry): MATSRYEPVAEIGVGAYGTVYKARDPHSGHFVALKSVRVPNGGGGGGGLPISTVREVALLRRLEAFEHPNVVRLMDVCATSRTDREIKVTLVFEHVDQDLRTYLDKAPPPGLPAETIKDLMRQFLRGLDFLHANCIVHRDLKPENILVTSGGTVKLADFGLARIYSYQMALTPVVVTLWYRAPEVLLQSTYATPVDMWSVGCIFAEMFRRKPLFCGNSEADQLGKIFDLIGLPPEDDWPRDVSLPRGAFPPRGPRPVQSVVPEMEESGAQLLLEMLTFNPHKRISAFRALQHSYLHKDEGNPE
Sequence of human cyclin D1-CDK4 (P24385 whole entry partner): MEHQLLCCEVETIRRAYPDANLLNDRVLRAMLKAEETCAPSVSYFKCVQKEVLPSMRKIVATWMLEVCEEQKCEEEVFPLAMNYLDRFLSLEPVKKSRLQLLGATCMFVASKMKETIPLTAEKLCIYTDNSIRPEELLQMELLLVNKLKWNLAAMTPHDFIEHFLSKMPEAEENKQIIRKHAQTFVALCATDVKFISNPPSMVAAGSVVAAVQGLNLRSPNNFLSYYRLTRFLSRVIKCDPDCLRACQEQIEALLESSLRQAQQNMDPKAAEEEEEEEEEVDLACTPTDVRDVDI
Sequence of human cyclin B-CDK1 (P06493 whole entry): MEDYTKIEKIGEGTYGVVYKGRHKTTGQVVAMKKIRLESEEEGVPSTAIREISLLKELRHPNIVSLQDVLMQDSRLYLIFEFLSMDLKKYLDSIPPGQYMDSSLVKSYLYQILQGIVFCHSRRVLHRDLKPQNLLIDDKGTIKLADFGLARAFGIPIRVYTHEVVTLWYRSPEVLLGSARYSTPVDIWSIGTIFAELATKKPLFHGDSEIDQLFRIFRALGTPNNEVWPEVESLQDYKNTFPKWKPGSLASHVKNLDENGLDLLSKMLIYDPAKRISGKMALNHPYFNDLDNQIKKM
Sequence of human cyclin B-CDK1 (P14635 whole entry partner): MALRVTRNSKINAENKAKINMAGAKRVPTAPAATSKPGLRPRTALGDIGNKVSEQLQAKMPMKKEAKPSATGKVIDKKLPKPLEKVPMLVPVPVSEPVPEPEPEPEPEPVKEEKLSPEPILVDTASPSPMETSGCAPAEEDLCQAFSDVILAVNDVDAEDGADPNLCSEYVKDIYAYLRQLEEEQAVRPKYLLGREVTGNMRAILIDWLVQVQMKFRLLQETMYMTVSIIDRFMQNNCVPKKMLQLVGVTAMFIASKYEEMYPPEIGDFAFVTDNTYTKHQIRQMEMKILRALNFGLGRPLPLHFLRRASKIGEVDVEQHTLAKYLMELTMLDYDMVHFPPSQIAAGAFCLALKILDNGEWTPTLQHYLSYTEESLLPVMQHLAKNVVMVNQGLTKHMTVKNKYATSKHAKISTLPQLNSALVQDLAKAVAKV

| IC50 [1] [nM] | IC50 [2] [nM] | IC50 [3] [nM] | IC50 [4] [nM] | Compound |
| --- | --- | --- | --- | --- |
| 11 | 2160 | 700 | 1940 | Cc1ccc(C(=O)c2sc(Nc3ccc(N4CCC(N5CCCC5)CC4)cc3)nc2N)cc1F [Example 121, {4-Amino-2-[4-(4-pyrrolidin-1-yl-piperidin-1-yl)-phenylamino]-thiazol-5-yl}-(3-fluoro-4-methyl-phenyl)-methanone] |
| 20 | 4220 | 5190 | 5310 | CCc1cc(C(=O)c2sc(Nc3ccc(N4CCC(N5CCCC5)CC4)cc3)nc2N)ccc1F [Example 122, {4-Amino-2-[4-(4-pyrrolidin-1-yl-piperidin-1-yl)-phenylamino]-thiazol-5-yl}-(3-ethyl-4-fluoro-phenyl)-methanone] |
| 14 | 1050 | 345 | 200 | CCCc1cc(C(=O)c2sc(Nc3ccc(N4CCC(N5CCCC5)CC4)cc3)nc2N)ccc1O [Example 123, {4-Amino-2-[4-(4-pyrrolidin-1-yl-piperidin-1-yl)-phenylamino]-thiazol-5-yl}-(4-hydroxy-3-propyl-phenyl)-methanone] |
| 29 | 568 | 253 | 701 | CCNC1CCN(c2ccc(Nc3nc(N)c(C(=O)c4cccc(F)c4)s3)cc2)C1 (centres unmarked) [Example 132, {4-Amino-2-[4-(3-ethylamino-pyrrolidin-1-yl)-phenylamino]-thiazol-5-yl}-(3-fluoro-phenyl)-methanone] |
| 66 | 1020 | 1860 | 3270 | CCNC1CCN(c2ccc(Nc3nc(N)c(C(=O)c4ccc(OC)c(F)c4)s3)cc2)C1 (centres unmarked) [Example 133, {4-Amino-2-[4-(3-ethylamino-pyrrolidin-1-yl)-phenylamino]-thiazol-5-yl}-(3-fluoro-4-methoxy-phenyl)-methanone] |
| 46 | 1240 | 1330 | 4500 | CCNC1CCN(c2ccc(Nc3nc(N)c(C(=O)c4cccc(OC)c4)s3)cc2)C1 (centres unmarked) [Example 134, {4-Amino-2-[4-(3-ethylamino-pyrrolidin-1-yl)-phenylamino]-thiazol-5-yl}-(3-methoxy-phenyl)-methanone] |
| 28 | 3370 | 1150 | 6100 | CCNC1CCN(c2ccc(Nc3nc(N)c(C(=O)c4cccc(OC)c4)s3)cc2)CC1 [Example 135, {4-Amino-2-[4-(4-ethylamino-piperidin-1-yl)-phenylamino]-thiazol-5-yl}-(3-methoxy-phenyl)-methanone] |
| 50 | 3260 | 1560 | 9430 | CCNC1CCN(c2ccc(Nc3nc(N)c(C(=O)c4ccc(OC)c(F)c4)s3)cc2)CC1 [Example 136, {4-Amino-2-[4-(4-ethylamino-piperidin-1-yl)-phenylamino]-thiazol-5-yl}-(3-fluoro-4-methoxy-phenyl)-methanone] |
